Columns and labels:
[1] = Acute oral toxicity (LD50) in ddY mice; details: mouse, in vivo, male ddY mice, suspension in 2% aqueous gum arabic
Procedure: The compounds listed above have very low toxicity, and the first six compounds have following the LD50 values when they are administered orally to ddY strain male mice (5 weeks old and weighing from 26-30 g) in the form of a suspension in a 2% aqueous gum arabic: […]

[2] = tested on: rats with stress-induced ulcer; assay: Restraint and water immersion stress ulcer test in rats (Takagi et al.); type: in vivo, rat (Sprague-Dawley, male); details: for inhibition in vivo at 50 mg/kg / inhibition in vivo at 100 mg/kg / inhibition in vivo at 200 mg/kg: Rattus norvegicus
Procedure: Groups of 7-week-old Sprague-Dawley male rats each consisting of 10 members were starved for 24 hours and administered orally the compounds of the present invention. Ten minutes later, they were confined in a restrainer cage according to the method of Takagi et al. (Japanese Journal of Pharmacology, 18, 9-18, 1968), and the cage was placed vertically in a water tank at 23°-24° C. until the rats were immersed in the water to the depth of the processus xiphoideus. Sixteen hours later, the rats were killed with excess ether and had their stomach removed. Each stomach was incised along the greater curvature after the surface of the gastric mucosa and serous membrane was lightly fixed with 1% formalin. The diameter (mm) of the ulcers developed in each rat was summed and the sum was used as the ulcer index for each rat.
The activity of the compounds of the present invention to cure peptic ulcer was measured as in Example 2.

[3] = tested on: ulcers developed in Shay rats; assay: Pylorus ligation (Shay) ulcer test in rats; type: in vivo, rat (Sprague-Dawley, male)
Procedure: Groups of 8-week-old Spraque-Dawley male rats each consisting of 10 members were starved for 48 hours, anaethesized with ether and had their pylorus ligated in accordance with the method of Shay et al. (Gasteroenterology, 5, 43-61, 1945). Immediately thereafter, they were administered the compounds of the present invention intra-duodenally or intraperitoneally. Eighteen hours later, they were killed with excess ether and the gastric mucus membrane was removed and observed under a stereoscopic microscope (×10). The diameter (mm) of the ulcers developed in each rat was summed and the sum was used as the ulcer index of each rat.
The activity of the compounds of the present invention to cure peptic ulcer was measured as in Example 1. The test compound was administered in the duodenum.

[4] = Table 2, oral, 50 mg/kg, 16 h immersion
[5] = Table 2, oral, 100 mg/kg, 16 h immersion
[6] = Table 2, oral, 200 mg/kg, 16 h immersion
[7] = Table 1, intra-duodenal, 50 mg/kg, 18 h
[8] = Table 1, intra-duodenal, 100 mg/kg, 18 h
[9] = Table 1, intra-duodenal, 200 mg/kg, 18 h
[10] = Table 1, intra-peritoneal, 50 mg/kg, 18 h
[11] = Table 4, as in Example 2 (oral), 200 mg/kg
[12] = Table 3, administered in the duodenum, 100 mg/kg

SMILES: O=C(O)c1ccccc1Nc1cc(Cl)ccc1C(=O)O [Compound 1]
- LD50 [1]: 2100 mg/kg

SMILES: Cc1ccc(Nc2cc(Cl)ccc2C(=O)O)c(C(=O)O)c1 [Compound 2]
- inhibition in vivo at 50 mg/kg [2, 4]: 22.5%
- inhibition in vivo at 100 mg/kg [2, 5]: 89.2%
- inhibition in vivo at 200 mg/kg [2, 6]: 100%
- ulcer index (means ± S.E.) [2, 4]: 12.0 ± 6.2 mm
- ulcer index (means ± S.E.) [2, 5]: 1.7 ± 1.2 mm
- ulcer index (means ± S.E.) [2, 6]: 0 mm
- LD50 [1]: > 1500 mg/kg
- inhibition [3, 7]: 87.8%
- ulcer index (means ± S.E.) [3, 7]: 0.5 ± 0.3 mm
- inhibition [3, 8]: 92.7%
- ulcer index (means ± S.E.) [3, 8]: 0.3 ± 0.3 mm
- inhibition [3, 9]: 100%
- ulcer index (means ± S.E.) [3, 9]: 0 mm
- inhibition [3, 10]: 80.7%
- ulcer index (means ± S.E.) [3, 10]: 0.8 ± 0.4 mm

SMILES: O=C(O)c1ccc(Cl)cc1Nc1cc(Cl)ccc1C(=O)O [Compound 3]
- inhibition in vivo at 50 mg/kg [2, 4]: 23.3%
- inhibition in vivo at 100 mg/kg [2, 5]: 49.5%
- inhibition in vivo at 200 mg/kg [2, 6]: 92%
- ulcer index (means ± S.E.) [2, 4]: 14.3 ± 3.9 mm
- ulcer index (means ± S.E.) [2, 5]: 9.4 ± 4.8 mm
- ulcer index (means ± S.E.) [2, 6]: 1.5 ± 0.8 mm
- LD50 [1]: > 2000 mg/kg
- inhibition [3, 7]: 33.7%
- ulcer index (means ± S.E.) [3, 7]: 2.3 ± 0.7 mm
- inhibition [3, 8]: 78.0%
- ulcer index (means ± S.E.) [3, 8]: 0.9 ± 0.6 mm
- inhibition [3, 9]: 100%
- ulcer index (means ± S.E.) [3, 9]: 0 mm
- inhibition [3, 10]: 95.7%
- ulcer index (means ± S.E.) [3, 10]: 0.3 ± 0.3 mm

SMILES: Cc1ccc(C)c(C(=O)O)c1Nc1cc(Cl)ccc1C(=O)O [Compound 4]
- LD50 [1]: 3000 mg/kg

SMILES: Cc1c(Cl)ccc(C(=O)O)c1Nc1ccccc1C(=O)O [Compound 5]
- inhibition in vivo at 50 mg/kg [2, 4]: 38.5%
- inhibition in vivo at 100 mg/kg [2, 5]: 88.2%
- inhibition in vivo at 200 mg/kg [2, 6]: 100%
- ulcer index (means ± S.E.) [2, 4]: 9.6 ± 4.4 mm
- ulcer index (means ± S.E.) [2, 5]: 1.8 ± 0.9 mm
- ulcer index (means ± S.E.) [2, 6]: 0 mm
- LD50 [1]: 1250 mg/kg
- inhibition [3, 7]: 67.1%
- ulcer index (means ± S.E.) [3, 7]: 1.3 ± 0.6 mm
- inhibition [3, 8]: 96.6%
- ulcer index (means ± S.E.) [3, 8]: 0.1 ± 0.1 mm
- inhibition [3, 9]: 100%
- ulcer index (means ± S.E.) [3, 9]: 0 mm
- inhibition [3, 10]: 100%
- ulcer index (means ± S.E.) [3, 10]: 0 mm

SMILES: Cc1ccc(C(=O)O)c(Nc2ccccc2C(=O)O)c1 [Compound 6]
- inhibition in vivo at 50 mg/kg [2, 4]: 34.3%
- inhibition in vivo at 100 mg/kg [2, 5]: 92.9%
- inhibition in vivo at 200 mg/kg [2, 6]: 100%
- ulcer index (means ± S.E.) [2, 4]: 12.1 ± 3.5 mm
- ulcer index (means ± S.E.) [2, 5]: 1.5 ± 1.1 mm
- ulcer index (means ± S.E.) [2, 6]: 0 mm
- LD50 [1]: > 2000 mg/kg
- inhibition [3, 7]: 58.6%
- ulcer index (means ± S.E.) [3, 7]: 1.4 ± 0.7 mm
- inhibition [3, 8]: 92.5%
- ulcer index (means ± S.E.) [3, 8]: 0.3 ± 0.3 mm
- inhibition [3, 9]: 100%
- ulcer index (means ± S.E.) [3, 9]: 0 mm
- inhibition [3, 10]: 48.6%
- ulcer index (means ± S.E.) [3, 10]: 2.0 ± 0.7 mm

SMILES: COc1cc(Nc2ccccc2C(=O)O)c(C(=O)O)cc1OC [Compound 7]
- inhibition in vivo at 200 mg/kg [2, 11]: 98.4%
- ulcer index (means ± S.E.) [2, 11]: 0.2 ± 0.1 mm

SMILES: COc1ccc(C(=O)O)c(Nc2cc(Cl)ccc2C(=O)O)c1 [Compound 8]
- inhibition in vivo at 200 mg/kg [2, 11]: 96.7%
- ulcer index (means ± S.E.) [2, 11]: 1.7 ± 1.3 mm
- inhibition [3, 12]: 100.0%
- ulcer index (means ± S.E.) [3, 12]: 0 ± 0 mm

SMILES: Cc1ccc(C(=O)O)c(Nc2cc(Cl)ccc2C(=O)O)c1C [Compound 9]
- inhibition in vivo at 200 mg/kg [2, 11]: 83.4%
- ulcer index (means ± S.E.) [2, 11]: 6.5 ± 3.4 mm
- inhibition [3, 12]: 80.1%
- ulcer index (means ± S.E.) [3, 12]: 0.7 ± 0.7 mm

SMILES: Cc1cc(Nc2ccccc2C(=O)O)c(C(=O)O)cc1C [Compound 10]
- inhibition in vivo at 200 mg/kg [2, 11]: 90.1%
- ulcer index (means ± S.E.) [2, 11]: 3.8 ± 1.5 mm
- inhibition [3, 12]: 100.0%
- ulcer index (means ± S.E.) [3, 12]: 0 ± 0 mm

SMILES: Cc1cc(C)c(C(=O)O)c(Nc2ccccc2C(=O)O)c1 [Compound 11]
- inhibition in vivo at 200 mg/kg [2, 11]: 96.9%
- ulcer index (means ± S.E.) [2, 11]: 1.2 ± 0.9 mm
- inhibition [3, 12]: 60.0%
- ulcer index (means ± S.E.) [3, 12]: 1.4 ± 0.6 mm

SMILES: Cc1cc(C(=O)O)c(Nc2ccccc2C(=O)O)cc1Cl [Compound 12]
- inhibition in vivo at 200 mg/kg [2, 11]: 96.7%
- ulcer index (means ± S.E.) [2, 11]: 1.3 ± 0.7 mm
- inhibition [3, 12]: 91.8%
- ulcer index (means ± S.E.) [3, 12]: 0.3 ± 0.3 mm

SMILES: Cc1cc(C)c(C(=O)O)c(Nc2cc(Cl)ccc2C(=O)O)c1 [Compound 13]
- inhibition in vivo at 200 mg/kg [2, 11]: 70%
- ulcer index (means ± S.E.) [2, 11]: 11.6 ± 6.2 mm
- inhibition [3, 12]: 50.0%
- ulcer index (means ± S.E.) [3, 12]: 1.0 ± 0.7 mm

SMILES: Cc1ccc(C(=O)O)c(Nc2ccccc2C(=O)O)c1C [Compound 14]
- inhibition in vivo at 200 mg/kg [2, 11]: 90.9%
- ulcer index (means ± S.E.) [2, 11]: 3.5 ± 1.6 mm
- inhibition [3, 12]: 78.5%
- ulcer index (means ± S.E.) [3, 12]: 0.4 ± 0.4 mm

SMILES: Cc1cc(Nc2cc(Cl)ccc2C(=O)O)c(C(=O)O)cc1C [Compound 15]
- inhibition in vivo at 200 mg/kg [2, 11]: 78.8%
- ulcer index (means ± S.E.) [2, 11]: 8.2 ± 3.2 mm

— patent publication US4447453A, “Anti-peptic ulcer agent” (Chugai Seiyaku Kabushiki Kaisha, priority 1980, dated 1984)
